pIC50: −log10 of the molar value.
System: 898857-211-R-J1-PDC complex spheroids, growth % test/control
Assay: Anticancer human tumor 898857-211-R-J1-PDC patient-derived melanoma cell line growth inhibition [RAS]
Details: for pIC50: curve of first compound; for viability, T/C: stronger effect = lower value; active = viability on the fitted dose curve at most 10% of control; inactive = the rest
In short: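 Agents were tested in combination matrices in half-log decrements from a top concentration at or near clinical Cmax (10 microM if undetermined). Targets were multi-cell spheroids of tumour lines plus HUVEC and MSC stromal cells.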

[1] = second compound 0.000949 µM, first compound 0.0316 µM
[2] = second compound 0.000949 µM, first compound 0.1 µM
[3] = second compound 0.000949 µM, first compound 0.316 µM
[4] = second compound 0.000949 µM, first compound 1 µM
[5] = second compound 0.000949 µM, first compound 3.16 µM
[6] = second compound 0.000949 µM, first compound 10 µM
[7] = second compound 0.003 µM, first compound 0.0316 µM
[8] = second compound 0.003 µM, first compound 0.1 µM
[9] = second compound 0.003 µM, first compound 0.316 µM
[10] = second compound 0.003 µM, first compound 1 µM
[11] = second compound 0.003 µM, first compound 3.16 µM
[12] = second compound 0.003 µM, first compound 10 µM
[13] = second compound 0.00949 µM, first compound 0.0316 µM
[14] = second compound 0.00949 µM, first compound 0.1 µM
[15] = second compound 0.00949 µM, first compound 0.316 µM
[16] = second compound 0.00949 µM, first compound 1 µM
[17] = second compound 0.00949 µM, first compound 3.16 µM
[18] = second compound 0.00949 µM, first compound 10 µM
[19] = second compound 0.03 µM, first compound 0.0316 µM
[20] = second compound 0.03 µM, first compound 0.1 µM
[21] = second compound 0.03 µM, first compound 0.316 µM
[22] = second compound 0.03 µM, first compound 1 µM
[23] = second compound 0.03 µM, first compound 3.16 µM
[24] = second compound 0.03 µM, first compound 10 µM
[25] = second compound 0.0949 µM, first compound 0.0316 µM
[26] = second compound 0.0949 µM, first compound 0.1 µM
[27] = second compound 0.0949 µM, first compound 0.316 µM
[28] = second compound 0.0949 µM, first compound 1 µM
[29] = second compound 0.0949 µM, first compound 3.16 µM
[30] = second compound 0.0949 µM, first compound 10 µM
[31] = second compound 0.3 µM, first compound 0.0316 µM
[32] = second compound 0.3 µM, first compound 0.1 µM
[33] = second compound 0.3 µM, first compound 0.316 µM
[34] = second compound 0.3 µM, first compound 1 µM
[35] = second compound 0.3 µM, first compound 3.16 µM
[36] = second compound 0.3 µM, first compound 10 µM
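Also: spheroids exposed to compound for seven days before readout.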
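For viability, T/C in this document: 100% = DMSO vehicle control wells.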

CCC(CC)c1cc(NC2CCC(N)C2)n2nccc2n1 (centres undefined) + CCn1c(-c2cccnc2C(C)OC)c2c3cc(ccc31)N1CCOC(CC(NC(=O)C(C(C)C)N(C)C(=O)C3(F)CCN(C(=O)C#CC(C)(C)N(C)C)CC3)C(=O)N3CCCC(N3)C(=O)OCC(C)(C)C2)C1
5.95: pIC50 (second compound 0.000949 µM)
6.38: pIC50 (second compound 0.3 µM)
inactive: viability, T/C [1] 124% | viability, T/C [2] 105% | viability, T/C [3] 101% | viability, T/C [4] 57.4% | viability, T/C [7] 109% | viability, T/C [8] 106% | viability, T/C [9] 103% | viability, T/C [10] 54% | viability, T/C [13] 103% | viability, T/C [14] 100% | viability, T/C [15] 101% | viability, T/C [16] 48.5% | viability, T/C [19] 108% | viability, T/C [20] 109% | viability, T/C [21] 102% | viability, T/C [22] 51.9% | viability, T/C [25] 94.9% | viability, T/C [26] 105% | viability, T/C [27] 80.4% | viability, T/C [28] 40.9% | viability, T/C [31] 83.5% | viability, T/C [32] 72.2% | viability, T/C [33] 59.9% | viability, T/C [34] 22.7%
6.01: pIC50 (second compound 0.00949 µM)
5.98: pIC50 (second compound 0.03 µM)
6.13: pIC50 (second compound 0.0949 µM)
5.96: pIC50 (second compound 0.003 µM)
active: viability, T/C [5] 1.07% | viability, T/C [6] 0.23% | viability, T/C [11] 0.85% | viability, T/C [12] 0.65% | viability, T/C [17] 1.54% | viability, T/C [18] 0.27% | viability, T/C [23] 0.7% | viability, T/C [24] 0.63% | viability, T/C [29] 0.82% | viability, T/C [30] 0.45% | viability, T/C [35] 1.27% | viability, T/C [36] 0.27%

Cc1nc(N2CCC3(CC2)COC(C)C3N)c(CO)nc1Sc1ccnc(N)c1Cl (centres undefined) + CCn1c(-c2cccnc2C(C)OC)c2c3cc(ccc31)N1CCOC(CC(NC(=O)C(C(C)C)N(C)C(=O)C3(F)CCN(C(=O)C#CC(C)(C)N(C)C)CC3)C(=O)N3CCCC(N3)C(=O)OCC(C)(C)C2)C1
inactive: viability, T/C [1] 94.5% | viability, T/C [2] 94.9% | viability, T/C [3] 103% | viability, T/C [4] 98.8% | viability, T/C [5] 93.1% | viability, T/C [6] 90.6% | viability, T/C [7] 98.6% | viability, T/C [8] 98.5% | viability, T/C [9] 97.6% | viability, T/C [10] 95.7% | viability, T/C [11] 113% | viability, T/C [12] 93.4% | viability, T/C [13] 99.7% | viability, T/C [14] 104% | viability, T/C [15] 107% | viability, T/C [16] 96% | viability, T/C [17] 92.3% | viability, T/C [18] 85.1% | viability, T/C [19] 93.2% | viability, T/C [20] 90.2% | viability, T/C [21] 96.8% | viability, T/C [22] 109% | viability, T/C [23] 89.5% | viability, T/C [24] 92% | viability, T/C [25] 90.6% | viability, T/C [26] 100% | viability, T/C [27] 87.7% | viability, T/C [28] 96.3% | viability, T/C [29] 92% | viability, T/C [30] 88.6% | viability, T/C [31] 85.2% | viability, T/C [32] 82.7% | viability, T/C [33] 77.4% | viability, T/C [34] 76.9% | viability, T/C [35] 74.2% | viability, T/C [36] 69.5%
< 5.00: pIC50 (second compound 0.000949 µM) | pIC50 (second compound 0.003 µM) | pIC50 (second compound 0.00949 µM) | pIC50 (second compound 0.03 µM) | pIC50 (second compound 0.0949 µM) | pIC50 (second compound 0.3 µM)
